Test results published in patent publication US11739098B2 (BRISTOL-MYERS SQUIBB COMPANY, priority 2017, dated 2023).

What was measured:
Type in all cases: cell-based
human TLR7 = target: T1, human TLR7 (Homo sapiens, UniProt Q9NYK1); experiment: TLR7 inhibition reporter assay (HEK-Blue cells, SEAP reporter, gardiquimod stimulation); settings: HEK-Blue cells overexpressing human TLR7, SEAP reporter, gardiquimod 7.5 μM
T1 construct: host or cells: HEK-Blue cells (HEK293-derived reporter line)
T1 sequence (Q9NYK1 27-1049): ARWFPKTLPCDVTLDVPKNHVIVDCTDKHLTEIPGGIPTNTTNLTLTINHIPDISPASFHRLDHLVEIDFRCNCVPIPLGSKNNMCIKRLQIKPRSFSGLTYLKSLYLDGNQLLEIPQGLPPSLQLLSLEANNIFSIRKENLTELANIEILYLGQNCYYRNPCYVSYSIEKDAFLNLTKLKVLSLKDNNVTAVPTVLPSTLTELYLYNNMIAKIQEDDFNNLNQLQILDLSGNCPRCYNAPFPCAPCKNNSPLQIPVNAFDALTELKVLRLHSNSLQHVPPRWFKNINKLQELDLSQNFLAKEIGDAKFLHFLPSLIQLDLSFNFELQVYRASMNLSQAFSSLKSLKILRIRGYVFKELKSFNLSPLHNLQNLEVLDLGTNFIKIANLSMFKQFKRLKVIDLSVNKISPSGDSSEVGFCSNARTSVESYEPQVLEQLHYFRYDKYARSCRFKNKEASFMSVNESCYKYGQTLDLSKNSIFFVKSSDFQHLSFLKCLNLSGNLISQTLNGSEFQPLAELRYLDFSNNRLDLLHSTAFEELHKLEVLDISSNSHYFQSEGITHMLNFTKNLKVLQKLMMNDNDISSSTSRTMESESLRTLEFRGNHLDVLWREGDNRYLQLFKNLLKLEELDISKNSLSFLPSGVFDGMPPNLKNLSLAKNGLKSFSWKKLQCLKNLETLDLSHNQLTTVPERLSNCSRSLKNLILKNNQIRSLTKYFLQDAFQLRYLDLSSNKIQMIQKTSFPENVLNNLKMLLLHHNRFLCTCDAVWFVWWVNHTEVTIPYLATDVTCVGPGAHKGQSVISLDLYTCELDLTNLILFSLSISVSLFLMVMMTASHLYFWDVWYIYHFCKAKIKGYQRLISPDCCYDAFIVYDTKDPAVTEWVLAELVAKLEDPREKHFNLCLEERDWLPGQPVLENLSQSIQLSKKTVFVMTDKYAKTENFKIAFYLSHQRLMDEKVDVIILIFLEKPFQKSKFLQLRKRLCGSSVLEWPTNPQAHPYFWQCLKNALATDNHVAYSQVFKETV
Outline: (§1)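 After 22 h at 37 °C, SEAP secretion was measured from human TLR7-, TLR8- or TLR9-expressing HEK-Blue reporter cells given compound (0.05 nM–50 μM) 30 min before agonist: 7.5 μM gardiquimod, 15.9 μM R848 or 5 nM ODN2006 respectively. Percent inhibition referenced to agonist-plus-DMSO and known-inhibitor wells.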

human TLR8 = target: T2, human TLR8 (Homo sapiens, UniProt Q9NR97); experiment: TLR8 inhibition reporter assay (HEK-Blue cells, SEAP reporter, R848 stimulation); settings: HEK-Blue cells overexpressing human TLR8, SEAP reporter, R848 15.9 μM
T2 construct: host or cells: HEK-Blue cells (HEK293-derived reporter line)
T2 sequence (Q9NR97 27-1041): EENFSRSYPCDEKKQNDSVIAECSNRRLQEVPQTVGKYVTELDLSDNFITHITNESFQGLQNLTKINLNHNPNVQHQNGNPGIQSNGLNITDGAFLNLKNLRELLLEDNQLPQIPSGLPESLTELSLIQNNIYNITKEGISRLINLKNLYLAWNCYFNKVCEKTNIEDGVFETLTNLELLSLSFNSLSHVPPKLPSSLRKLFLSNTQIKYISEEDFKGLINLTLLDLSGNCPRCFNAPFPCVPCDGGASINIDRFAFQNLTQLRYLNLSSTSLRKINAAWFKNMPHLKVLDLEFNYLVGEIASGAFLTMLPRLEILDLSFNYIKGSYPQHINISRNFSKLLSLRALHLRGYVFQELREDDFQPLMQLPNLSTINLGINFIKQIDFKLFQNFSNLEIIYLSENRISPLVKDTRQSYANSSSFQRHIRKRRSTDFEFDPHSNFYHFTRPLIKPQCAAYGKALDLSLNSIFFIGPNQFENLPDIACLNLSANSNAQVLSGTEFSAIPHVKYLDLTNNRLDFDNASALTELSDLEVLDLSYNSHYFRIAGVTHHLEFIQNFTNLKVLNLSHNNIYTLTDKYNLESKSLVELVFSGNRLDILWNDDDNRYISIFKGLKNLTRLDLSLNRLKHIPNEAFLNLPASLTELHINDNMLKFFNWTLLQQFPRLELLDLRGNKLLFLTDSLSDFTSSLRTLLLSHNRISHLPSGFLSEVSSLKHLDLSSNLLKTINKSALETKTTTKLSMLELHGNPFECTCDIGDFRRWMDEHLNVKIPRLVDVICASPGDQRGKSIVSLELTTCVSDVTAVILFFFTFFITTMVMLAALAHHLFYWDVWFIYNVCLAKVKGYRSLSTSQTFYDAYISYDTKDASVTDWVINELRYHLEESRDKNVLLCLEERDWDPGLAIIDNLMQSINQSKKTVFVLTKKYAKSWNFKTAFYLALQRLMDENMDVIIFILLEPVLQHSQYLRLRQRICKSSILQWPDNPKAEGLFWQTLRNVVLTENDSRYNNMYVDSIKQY
Outline: as §1

human TLR9 = target: T3, human TLR9 (Homo sapiens, UniProt Q9NR96); experiment: TLR9 inhibition reporter assay (HEK-Blue cells, SEAP reporter, ODN2006 stimulation); settings: HEK-Blue cells overexpressing human TLR9, SEAP reporter, ODN2006 5 nM
T3 construct: host or cells: HEK-Blue cells (HEK293-derived reporter line)
T3 sequence (Q9NR96 26-1032): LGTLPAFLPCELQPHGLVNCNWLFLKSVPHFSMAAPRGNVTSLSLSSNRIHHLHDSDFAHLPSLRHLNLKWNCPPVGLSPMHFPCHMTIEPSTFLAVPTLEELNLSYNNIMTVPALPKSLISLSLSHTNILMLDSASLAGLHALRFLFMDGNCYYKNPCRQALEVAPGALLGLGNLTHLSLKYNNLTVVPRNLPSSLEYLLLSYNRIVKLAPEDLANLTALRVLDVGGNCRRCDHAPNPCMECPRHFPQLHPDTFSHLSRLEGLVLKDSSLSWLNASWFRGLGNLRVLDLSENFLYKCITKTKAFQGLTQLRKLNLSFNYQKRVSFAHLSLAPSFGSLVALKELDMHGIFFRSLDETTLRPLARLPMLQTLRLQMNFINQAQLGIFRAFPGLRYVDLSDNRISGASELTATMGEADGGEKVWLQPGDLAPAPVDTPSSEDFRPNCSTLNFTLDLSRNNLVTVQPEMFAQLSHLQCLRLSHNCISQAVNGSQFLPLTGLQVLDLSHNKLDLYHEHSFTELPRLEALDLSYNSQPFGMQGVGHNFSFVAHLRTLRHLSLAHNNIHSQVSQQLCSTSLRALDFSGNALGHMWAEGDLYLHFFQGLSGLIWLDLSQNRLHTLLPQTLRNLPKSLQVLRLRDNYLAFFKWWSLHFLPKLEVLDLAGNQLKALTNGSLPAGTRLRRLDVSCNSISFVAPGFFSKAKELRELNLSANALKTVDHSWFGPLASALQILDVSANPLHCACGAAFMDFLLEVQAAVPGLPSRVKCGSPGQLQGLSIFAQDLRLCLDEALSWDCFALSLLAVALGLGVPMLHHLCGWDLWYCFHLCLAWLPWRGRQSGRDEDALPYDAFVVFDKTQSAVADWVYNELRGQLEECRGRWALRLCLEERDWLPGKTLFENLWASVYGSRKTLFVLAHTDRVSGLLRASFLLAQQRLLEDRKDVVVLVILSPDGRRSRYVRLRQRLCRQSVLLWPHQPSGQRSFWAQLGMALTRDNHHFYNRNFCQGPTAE
Outline: as §1

| Structure (SMILES) | IC50 (human TLR7) [nM] | IC50 (human TLR8) [nM] | IC50 (human TLR9) [nM] |
| --- | --- | --- | --- |
| Cc1cc(-c2[nH]c3ccc(C4CCN(C(=O)CCN(C)C(C)C)CC4)cc3c2C(C)C)cn2nnnc12 [Example 624, 3-(isopropyl(methyl)amino)-1-(4-(3-isopropyl-2-(8-methyltetrazolo[1,5-a]pyridin-6-yl)-1H-indol-5-yl)piperidin-1-yl)propan-1-one] | < 100 | < 100 | 100 to 1000 |
| CN(C)CC(=O)N1CCC(c2ccc3[nH]c(-c4cc(F)c5nccn5c4)c(CC(F)F)c3c2)CC1 [Example 546, 1-(4-(3-(2,2-difluoroethyl)-2-(8-fluoroimidazo[1,2-a]pyridin-6-yl)-1H-indol-5-yl)piperidin-1-yl)-2-(dimethylamino)ethan-1-one] | < 100 | 100 to 1000 | 100 to 1000 |
| Cc1cc(-c2c[nH]c3nccc(-c4[nH]c5ccc(C6CCNCC6)cc5c4C)c23)n(C)n1 [Example 225, 3-(1,3-dimethyl-1H-pyrazol-5-yl)-4-(3-methyl-5-(piperidin-4-yl)-1H-indol-2-yl)-1H-pyrrolo[2,3-b]pyridine] | 100 to 1000 | 100 to 1000 | 100 to 1000 |
| CC(C)c1c(-c2cc(F)c3nccn3c2)[nH]c2ccc(C3CCN(C(=O)C[C@@H](C)O)CC3)cc12 [Example 605, (R)-1-(4-(2-(8-fluoroimidazo[1,2-a]pyridin-6-yl)-3-isopropyl-1H-indol-5-yl)piperidin-1-yl)-3-hydroxybutan-1-one] | < 100 | 1000 to 50000 | > 50000 |
| Cc1cc(-c2[nH]c3ccc(C4CCN(C(=O)CN(C)C)CC4)cc3c2C(C)C)c2ccccc2n1 [Example 533, 2-(dimethylamino)-1-(4-(3-isopropyl-2-(2-methylquinolin-4-yl)-1H-indol-5-yl)piperidin-1-yl)ethan-1-one] | < 100 | < 100 | 100 to 1000 |
| Cc1cc(-c2[nH]c3ccc(C4CCNCC4)cc3c2C(C)C)cn2c(C)cnc12 [Example 121, 6-(3-isopropyl-5-(piperidin-4-yl)-1H-indol-2-yl)-3,8-dimethylimidazo[1,2-a]pyridine] | < 100 | 1000 to 50000 | 1000 to 50000 |
| COc1cc(-c2[nH]c3ccc(C4CCN(CC(=O)N(C)C)CC4)cc3c2C(C)C)cc2ncnn12 [Example 333, 2-(4-(3-isopropyl-2-(5-methoxy-[1,2,4]triazolo[1,5-a]pyridin-7-yl)-1H-indol-5-yl)piperidin-1-yl)-N,N-dimethylacetamide] | < 100 | < 100 | 1000 to 50000 |
| CC(C)c1c(-c2ccn3nccc3c2)[nH]c2ccc(C3CCN(C(=O)CN(C)C)CC3)cc12 [Example 542, 2-(dimethylamino)-1-(4-(3-isopropyl-2-(pyrazolo[1,5-a]pyridin-5-yl)-1H-indol-5-yl)piperidin-1-yl)ethan-1-one] | < 100 | 100 to 1000 | 1000 to 50000 |

Results, then the molecule that gave them:

| IC50 (human TLR7) [nM] | IC50 (human TLR8) [nM] | IC50 (human TLR9) [nM] | Structure (SMILES) |
| --- | --- | --- | --- |
| < 100 | < 100 | 1000 to 50000 | Cc1cc(-c2[nH]c3ccc(C4CCN(C5COC5)CC4)cc3c2C(C)C)cc2cnnn12 [Example 744, 5-(3-isopropyl-5-(1-(oxetan-3-yl)piperidin-4-yl)-1H-indol-2-yl)-7-methyl-[1,2,3]triazolo[1,5-a]pyridine] |
| < 100 | < 100 | 100 to 1000 | CNCCN1CCC(c2ccc3[nH]c(-c4ccnc5[nH]ncc45)c(C(C)C)c3c2)C(F)C1 (stereo not drawn) [Example 677, 2-(3-fluoro-4-(3-isopropyl-2-(1H-pyrazolo[3,4-b]pyridin-4-yl)-1H-indol-5-yl)piperidin-1-yl)-N-methylethan-1-amine] |
| 100 to 1000 | < 100 | < 100 | Cc1c(-c2ncnc3[nH]ncc23)[nH]c2ccc(C3CCN(C4CCN(C(C)C)CC4)CC3)cc12 [Example 816, 4-(5-(1′-isopropyl-[1,4′-bipiperidin]-4-yl)-3-methyl-1H-indol-2-yl)-1H-pyrazolo[3,4-d]pyrimidine] |
| < 100 | < 100 | 1000 to 50000 | COc1ncc(CN2CCC(c3ccc4[nH]c(-c5ccnc6[nH]ncc56)c(C(C)C)c4c3)CC2)cn1 [Example 909, 4-(3-isopropyl-5-(1-((2-methoxypyrimidin-5-yl)methyl)piperidin-4-yl)-1H-indol-2-yl)-1H-pyrazolo[3,4-b]pyridine] |
| > 50000 | > 3130 | 100 to 1000 | CNCCN1CCC(c2ccc3[nH]c(-c4cncc5ccccc45)c(C)c3c2)CC1 [Example 665, 2-(4-(2-(isoquinolin-4-yl)-3-methyl-1H-indol-5-yl)piperidin-1-yl)-N-methylethan-1-amine] |
| < 100 | < 100 | 100 to 1000 | CCCN1CCC(c2ccc3[nH]c(-c4cc(C)c5ncn(C)c5c4)c(C(C)C)c3c2)CC1 [Example 954, 6-(3-isopropyl-5-(1-propylpiperidin-4-yl)-1H-indol-2-yl)-1,4-dimethyl-1H-benzo[d]imidazole] |
